Where two headings read alike, the source gives them in different places.
How the values were obtained:
[1] = Pharmacokinetic profile in male SD rats (Experiment 8); format: in vivo, rat
Procedure: Example A was dissolved in 5% DMA+10% Solutol+85%(10% HPBCD in saline) to afford a clear dosing solution of 1 mg/mL. The dosing solution was administered to three rats at 2 mg/kg i.v. via the foot dorsal vein and to three further rats at 10 mg/kg p.o. via oral gavage. Blood samples (ca. 150 μL) were collected at 2, 5, 20 min, 1, 2, 4, 8, 12 and 24 h after i.v. dosing and at 5, 15, 30 min, 1, 2, 4, 8, 12 and 24 h after oral dosing. The blood samples were centrifuged at 4° C. (2000 g, 5 min) within 15 min of sample collection to obtain plasma samples. Plasma samples were stored at −80° C. until analysis. The samples were analysed by UPLC-MS/MS (API 4000).

full-length human PDE4B1 = target: T1, full-length human PDE4B1 (Homo sapiens, UniProt Q07343); experiment: PDE4 radio-assay, PDE4B1 long form activation (Experiment 1); format: biochemical; conditions: n ≥ 2
T1 construct: stably expressed the full-length human PDE4D5, PDE4A4 and PDE4B1 long isoforms; made in house; cytosol fraction of the lysate
T1 sequence (Q07343 whole entry, canonical isoform): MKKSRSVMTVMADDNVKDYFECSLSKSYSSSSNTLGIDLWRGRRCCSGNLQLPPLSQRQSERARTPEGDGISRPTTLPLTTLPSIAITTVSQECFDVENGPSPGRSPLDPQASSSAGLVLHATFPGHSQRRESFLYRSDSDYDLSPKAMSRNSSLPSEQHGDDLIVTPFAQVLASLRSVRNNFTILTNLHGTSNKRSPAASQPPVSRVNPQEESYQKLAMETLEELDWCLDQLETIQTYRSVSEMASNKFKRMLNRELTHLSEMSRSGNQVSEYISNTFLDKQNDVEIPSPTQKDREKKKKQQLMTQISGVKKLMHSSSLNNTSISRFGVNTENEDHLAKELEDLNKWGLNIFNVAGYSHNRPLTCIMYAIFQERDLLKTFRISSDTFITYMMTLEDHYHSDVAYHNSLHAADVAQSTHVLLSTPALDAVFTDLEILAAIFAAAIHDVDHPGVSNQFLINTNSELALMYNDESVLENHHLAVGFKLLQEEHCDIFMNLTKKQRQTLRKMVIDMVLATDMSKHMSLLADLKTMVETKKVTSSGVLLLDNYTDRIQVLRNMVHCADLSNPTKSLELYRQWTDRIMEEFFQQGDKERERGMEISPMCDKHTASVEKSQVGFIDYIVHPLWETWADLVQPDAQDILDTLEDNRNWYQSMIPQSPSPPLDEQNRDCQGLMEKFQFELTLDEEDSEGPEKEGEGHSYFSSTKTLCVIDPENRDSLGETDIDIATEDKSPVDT
Procedure: (§1) One suitable method of detecting whether or not a compound is capable of serving as an activator of a PDE4 long form is using a two-step radio-assay procedure described in Experiment 1. In summary, the method involves incubating a PDE4 long form with a test small molecule activator, together with [^3H]-labelled cAMP to assess alterations in the breakdown of cAMP to the 5′-adenosine monophosphate (5′-AMP) product. A sample of the reaction mixture from such an incubation is subsequently treated with snake venom 5′-nucleotidase to allow conversion of the nucleotide [^3H]-labelled 5′-AMP to the uncharged nucleoside [^3H]-labelled adenosine, which can be separated and quantified to assess PDE4 activity and the effect of the test compound (Thompson, W. J. and Appleman, M. M. Biochemistry 10: 311-316, 1971, with some modifications as described in: Marchmont, R. J. and Houslay, M. D. Biochem J. 187: 381-92, 1980).
(§2) HEK 293 cells were transfected with pDEST™ PDE4 expression vectors using Lipofectamine LTX/Plus reagent (Invitrogen) as outlined by the manufacturer and clonal isolates expanded to obtain cell lines that stably expressed the full-length human PDE4D5, PDE4A4 and PDE4B1 long isoforms and the full length human PDE4B2 short isoform. These were called the HEK-PDE4D5, HEK-PDE4A4, HEK-PDE4B1 and HEK-PDE4B2 cell lines, respectively.
(§3) HEK-PDE4D5 cells were seeded out in 100 mm plates and incubated at 37° C. in an atmosphere of 5% CO2, 95% air. Cell lysates were prepared using KHEM buffer [50 mM KCl, 10 mM EGTA, 50 mM HEPES (pH 7.2), 1.92 mM MgCl2].
(§4) To prepare the cell lysates, the 100 mm plates containing the cells were placed on ice and washed with ice-cold PBS (phosphate buffered saline, pH 7.4). KHEM buffer (500 μl) was added to the cells. Cells were then scraped off the plate and triturated using a needle (BD Microlance™ 0.8, 40 mm). The lysed cells were then centrifuged at 2000 rpm for 10 minutes to remove cell debris and the supernatant (cell lysate containing recombinant PDE4D5) was transferred to a fresh tube and kept on ice.
(§5) The cell lysate containing recombinant PDE4D5 was transferred into a centrifuge tube and placed into an ultracentrifuge (BECKMAN COULTER) and spun at high speed (100,000 g) for 30 minutes at 4° C. The cytosol fraction was then collected and its protein amount determined using a BCA protein assay.
(§6) PDE assays were performed using a final concentration of 10 mM Tris/5 mM MgCl2 and 1 μM [3H]-cAMP (Perkin Elmer) plus PDE4D5 cell lysate cytosol fraction, containing over-expressed PDE4D5, with and without test compound. Incubations were performed at 30° C. for 5 minutes. The samples were then placed in a boiling water bath for 2 minutes to denature the PDE enzyme, and returned to ice. Samples were allowed to cool for 1.0 min after which snake venom 5′-nucleotidase (25 μl, 1 mg/ml; Sigma) was added. The tubes were vortexed and incubated in a water bath at 30° C. for 10 minutes, to attain conversion of [3H]-5′-AMP to [3H]-adenosine, and then placed on ice. Dowex ion exchange resin (Sigma) prepared as a 1:1 Dowex:water stock was thoroughly re-suspended and diluted 2:1 with ethanol. The resulting Dowex suspension (0.4 ml) was added to each tube. Tubes were vortexed to mix and then incubated on ice for at least 15 minutes before a final vortex. […] Tubes were vortexed thoroughly to mix and the recovered [3H]-adenosine was quantified by measuring counts over 1 minute in a scintillation counter.

MDCK cells = experiment: Reduction of intracellular cAMP levels in forskolin stimulated MDCK cells (Experiment 2); format: cell-based, canine; conditions: 10 μM compound for 10 min prior to forskolin (10 μM) for 2 min; FIG. 6
Procedure: HEK 293 and MDCK cells (Public Health England, Cell Culture Collections) were maintained in DMEM supplemented with 10% (v/v) fetal bovine serum (Seralab), 2 mM L-glutamine, 1,000 U penicillin and 1,000 μg streptomycin (Life Technologies); termed complete media. Clonal HEK 293 cell lines were maintained in complete media supplemented with 0.6 mg/mL G418 (Enzo Life Sciences).
HEK 293 or MDCK cells were seeded at 100,000 cells per well, and left to adhere overnight. The cells were then treated with the compound indicated (10 μM) for 10 minutes, prior to stimulation with forskolin (10 μM, Sigma) for 2 minutes. Media was aspirated, and hydrochloric acid (0.1M) was added to lyse the cells. The cAMP assay (Enzo Life Sciences) was performed according to the manufacturers instructions.

full-length human PDE4D5 = target: T2, full-length human PDE4D5 (Homo sapiens, UniProt Q08499); experiment: PDE4 radio-assay, PDE4D5 long form activation (Experiment 1); format: biochemical; conditions: n ≥ 2, read-out: PDE4D5 activity (mean % increase in counts over basal activity without added compound)
T2 construct: stably expressed the full-length human PDE4D5, PDE4A4 and PDE4B1 long isoforms; made in house; cytosol fraction of the lysate
T2 sequence (Q08499 1-745 isoform Q08499-6): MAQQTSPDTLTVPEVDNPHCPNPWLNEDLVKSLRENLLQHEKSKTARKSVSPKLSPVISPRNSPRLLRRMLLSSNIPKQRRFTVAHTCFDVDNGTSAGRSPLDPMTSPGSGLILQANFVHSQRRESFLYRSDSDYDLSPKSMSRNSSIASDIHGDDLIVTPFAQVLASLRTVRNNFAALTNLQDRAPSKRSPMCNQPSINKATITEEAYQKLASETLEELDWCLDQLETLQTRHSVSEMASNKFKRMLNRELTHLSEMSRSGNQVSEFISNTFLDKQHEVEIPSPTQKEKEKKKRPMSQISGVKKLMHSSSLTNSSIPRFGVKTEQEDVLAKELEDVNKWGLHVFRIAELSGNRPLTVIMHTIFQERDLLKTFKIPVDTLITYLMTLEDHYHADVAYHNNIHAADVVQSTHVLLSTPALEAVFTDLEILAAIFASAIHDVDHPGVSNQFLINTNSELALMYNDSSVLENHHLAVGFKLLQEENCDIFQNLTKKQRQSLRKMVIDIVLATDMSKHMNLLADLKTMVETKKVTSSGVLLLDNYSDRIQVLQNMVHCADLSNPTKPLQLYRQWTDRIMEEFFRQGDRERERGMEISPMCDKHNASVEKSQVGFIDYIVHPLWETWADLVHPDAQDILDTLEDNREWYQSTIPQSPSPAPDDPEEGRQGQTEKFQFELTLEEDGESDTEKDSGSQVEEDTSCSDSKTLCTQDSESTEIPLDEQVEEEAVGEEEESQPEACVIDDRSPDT
Procedure: as §1, §2, §3, §4, §5
PDE assays were performed using a final concentration of 10 mM Tris/5 mM MgCl2 and 1 μM [3H]-cAMP (Perkin Elmer) plus PDE4D5 cell lysate cytosol fraction, containing over-expressed PDE4D5, with and without test compound. Incubations were performed at 30° C. for 5 minutes. The samples were then placed in a boiling water bath for 2 minutes to denature the PDE enzyme, and returned to ice. Samples were allowed to cool for 1.0 min after which snake venom 5′-nucleotidase (25 μl, 1 mg/ml; Sigma) was added. The tubes were vortexed and incubated in a water bath at 30° C. for 10 minutes, to attain conversion of [3H]-5′-AMP to [3H]-adenosine, and then placed on ice. Dowex ion exchange resin (Sigma) prepared as a 1:1 Dowex:water stock was thoroughly re-suspended and diluted 2:1 with ethanol. The resulting Dowex suspension (0.4 ml) was added to each tube. Tubes were vortexed to mix and then incubated on ice for at least 15 minutes before a final vortex. The Dowex resin was pelleted by centrifugation at 13,000 g at 4° C. for 3 minutes and 150 μl of the supernatant was removed to an Eppendorf tube containing 1 ml of ScintiSafe3 scintillation fluid (Fisher). Tubes were vortexed thoroughly to mix and the recovered [3H]-adenosine was quantified by measuring counts over 1 minute in a scintillation counter.

[2] = target: T3, full length human PDE4B2 short isoform (Homo sapiens, UniProt Q07343); experiment: PDE4 radio-assay, PDE4B2 short form (Experiment 1); format: biochemical; conditions: method of Experiment 1; FIG. 4
T3 construct: the full length human PDE4B2 short isoform; made in house; cytosol fraction of the lysate
T3 sequence (Q07343 1-564 isoform Q07343-2): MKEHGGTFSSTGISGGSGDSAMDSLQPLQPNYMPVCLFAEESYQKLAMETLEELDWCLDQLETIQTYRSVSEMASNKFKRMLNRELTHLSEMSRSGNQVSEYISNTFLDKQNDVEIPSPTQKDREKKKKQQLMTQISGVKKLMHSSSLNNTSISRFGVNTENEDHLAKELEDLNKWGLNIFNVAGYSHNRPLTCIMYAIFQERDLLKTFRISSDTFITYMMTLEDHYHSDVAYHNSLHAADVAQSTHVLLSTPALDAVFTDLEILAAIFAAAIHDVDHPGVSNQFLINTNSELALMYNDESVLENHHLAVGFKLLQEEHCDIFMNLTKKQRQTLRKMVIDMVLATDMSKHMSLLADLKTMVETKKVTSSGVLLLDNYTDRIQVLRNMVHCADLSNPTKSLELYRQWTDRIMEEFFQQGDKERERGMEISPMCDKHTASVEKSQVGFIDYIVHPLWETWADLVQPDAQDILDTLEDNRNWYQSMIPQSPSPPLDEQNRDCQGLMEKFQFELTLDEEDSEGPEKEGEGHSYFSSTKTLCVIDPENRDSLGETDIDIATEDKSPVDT
Procedure: as §1, §2, §3, §4, §5
PDE assays were performed using a final concentration of 10 mM Tris/5 mM MgCl2 and 1 μM [3H]-cAMP (Perkin Elmer) plus PDE4D5 cell lysate cytosol fraction, containing over-expressed PDE4D5, with and without test compound. Incubations were performed at 30° C. for 5 minutes. […] Tubes were vortexed thoroughly to mix and the recovered [3H]-adenosine was quantified by measuring counts over 1 minute in a scintillation counter.

full-length human PDE4A4 = target: T4, full-length human PDE4A4 (Homo sapiens, UniProt P27815); experiment: PDE4 radio-assay, PDE4A4 long form activation (Experiment 1); format: biochemical; conditions: n ≥ 2
T4 construct: stably expressed the full-length human PDE4D5, PDE4A4 and PDE4B1 long isoforms; made in house; cytosol fraction of the lysate
T4 sequence (P27815 whole entry, canonical isoform): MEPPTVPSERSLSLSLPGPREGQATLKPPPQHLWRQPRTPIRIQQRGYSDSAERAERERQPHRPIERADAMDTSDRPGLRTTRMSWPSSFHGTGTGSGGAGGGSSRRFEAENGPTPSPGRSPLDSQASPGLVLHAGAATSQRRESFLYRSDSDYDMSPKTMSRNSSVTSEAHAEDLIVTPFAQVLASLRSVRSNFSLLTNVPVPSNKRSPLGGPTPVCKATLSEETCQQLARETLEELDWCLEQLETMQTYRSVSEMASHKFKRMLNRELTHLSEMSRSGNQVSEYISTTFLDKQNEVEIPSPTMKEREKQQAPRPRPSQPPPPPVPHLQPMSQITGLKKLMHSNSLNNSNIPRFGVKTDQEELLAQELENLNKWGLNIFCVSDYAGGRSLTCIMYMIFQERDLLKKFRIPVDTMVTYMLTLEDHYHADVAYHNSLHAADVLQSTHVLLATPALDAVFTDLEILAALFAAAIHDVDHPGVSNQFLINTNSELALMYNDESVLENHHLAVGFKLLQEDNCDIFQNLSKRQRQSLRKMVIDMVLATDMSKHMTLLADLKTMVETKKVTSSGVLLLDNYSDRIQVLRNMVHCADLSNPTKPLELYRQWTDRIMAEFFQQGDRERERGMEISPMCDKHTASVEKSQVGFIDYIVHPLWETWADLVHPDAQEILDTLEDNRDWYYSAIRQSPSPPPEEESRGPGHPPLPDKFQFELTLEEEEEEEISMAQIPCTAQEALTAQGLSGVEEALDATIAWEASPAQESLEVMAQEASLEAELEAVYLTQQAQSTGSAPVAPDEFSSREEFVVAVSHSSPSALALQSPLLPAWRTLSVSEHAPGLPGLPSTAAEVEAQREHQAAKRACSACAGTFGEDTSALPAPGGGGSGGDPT
Procedure: as §1, §2, §3, §4, §5, §6

abnormal effects observed in the rats ([1]; 2 mg/kg i.v. or 10 mg/kg p.o.): No abnormal effects were observed
half-life ([1]; rat, iv, 2 mg/kg i.v., plasma, read-out: terminal half life after i.v. dosing (converted)): 2.2 h
bioavailability ([1]; rat, oral, 10 mg/kg p.o. vs 2 mg/kg i.v., plasma): 100%
half-life ([1]; rat, po, 10 mg/kg p.o., plasma, read-out: terminal half life after oral dosing (converted)): 9.1 h
PDE4B1 activity (mean % increase in counts over basal activity without added compound) (full-length human PDE4B1; 1 μM compound): −2.4%
PDE4B1 activity (mean % increase in counts over basal activity without added compound) (full-length human PDE4B1; 3 μM compound): 4.9%
PDE4B1 activity (mean % increase in counts over basal activity without added compound) (full-length human PDE4B1; 10 μM compound): 22.0%
PDE4B1 activity (mean % increase in counts over basal activity without added compound) (full-length human PDE4B1; 30 μM compound): 61.3%
PDE4B1 activity (mean % increase in counts over basal activity without added compound) (full-length human PDE4B1; 50 μM compound): 92.9%
activation at 1 µM (full-length human PDE4D5; 1 μM compound): -3.6%
activation at 3 µM (full-length human PDE4D5; 3 μM compound): -0.2%
activation at 10 µM (full-length human PDE4D5; 10 μM compound): 12.5%
activation at 30 µM (full-length human PDE4D5; 30 μM compound): 39.7%
activation at 50 µM (full-length human PDE4D5; 50 μM compound): 91.9%
activation of PDE4B2, a short form of PDE4 (in words) [2]: lack of activation
PDE4A4 activity (mean % increase in counts over basal activity without added compound) (full-length human PDE4A4; 1 μM compound): 1.1%
PDE4A4 activity (mean % increase in counts over basal activity without added compound) (full-length human PDE4A4; 3 μM compound): 2.7%
PDE4A4 activity (mean % increase in counts over basal activity without added compound) (full-length human PDE4A4; 10 μM compound): 10.4%
PDE4A4 activity (mean % increase in counts over basal activity without added compound) (full-length human PDE4A4; 30 μM compound): 38.5%
PDE4A4 activity (mean % increase in counts over basal activity without added compound) (full-length human PDE4A4; 50 μM compound): 65.4%
SMILES: CCc1nc(-c2ccc(Cl)c(F)c2)nn1CC(=O)NCc1cccc(F)c1 [Example A, N-(3-Fluorobenzyl)-2-[3-(4-chloro-3-fluorophenyl)-5-ethyl-1H-1,2,4-triazol-1-yl]acetamide]
intracellular cAMP levels in MDCK cells (in words) (MDCK cells): reduction in intracellular cAMP levels

— patent publication US10793531B2, “Triazole derivatives and their use as PDE4 activators” (MIRONID LIMITED, priority 2015, dated 2020)
